Test results: ChEMBL document CHEMBL2176999, “Update on the development of antagonists of chemoattractant receptor-homologous molecule expressed on Th2 cells (CRTH2). From lead optimization to clinical proof-of-concept in asthma and allergic rhinitis” (J Med Chem, 2012)
pIC50, pKi: −log10 of the molar value.

Assays:
[1] = biological target: T1, Prostaglandin D2 receptor 2 (Homo sapiens, UniProt Q9Y5Y4)
T1 sequence (Q9Y5Y4 whole entry): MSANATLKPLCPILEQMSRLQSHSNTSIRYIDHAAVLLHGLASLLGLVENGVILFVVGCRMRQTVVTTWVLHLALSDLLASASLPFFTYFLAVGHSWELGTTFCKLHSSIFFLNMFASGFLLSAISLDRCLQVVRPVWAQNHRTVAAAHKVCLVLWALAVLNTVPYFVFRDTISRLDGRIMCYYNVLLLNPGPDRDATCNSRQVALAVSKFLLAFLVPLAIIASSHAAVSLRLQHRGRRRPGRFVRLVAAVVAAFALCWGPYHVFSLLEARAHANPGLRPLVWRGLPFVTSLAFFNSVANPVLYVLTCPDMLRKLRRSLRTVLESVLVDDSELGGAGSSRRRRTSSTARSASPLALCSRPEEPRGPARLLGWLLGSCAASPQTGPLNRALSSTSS
Description: Inhibition of CRTH2 in human whole blood

[2] = biological target: T1, Prostaglandin D2 receptor 2; remark: listed apart in the source
[3] = biological target: Sodium-dependent serotonin transporter (Homo sapiens, UniProt P31645); experiment: Inhibition of SERT
Sodium-dependent serotonin transporter, sequence (P31645 whole entry): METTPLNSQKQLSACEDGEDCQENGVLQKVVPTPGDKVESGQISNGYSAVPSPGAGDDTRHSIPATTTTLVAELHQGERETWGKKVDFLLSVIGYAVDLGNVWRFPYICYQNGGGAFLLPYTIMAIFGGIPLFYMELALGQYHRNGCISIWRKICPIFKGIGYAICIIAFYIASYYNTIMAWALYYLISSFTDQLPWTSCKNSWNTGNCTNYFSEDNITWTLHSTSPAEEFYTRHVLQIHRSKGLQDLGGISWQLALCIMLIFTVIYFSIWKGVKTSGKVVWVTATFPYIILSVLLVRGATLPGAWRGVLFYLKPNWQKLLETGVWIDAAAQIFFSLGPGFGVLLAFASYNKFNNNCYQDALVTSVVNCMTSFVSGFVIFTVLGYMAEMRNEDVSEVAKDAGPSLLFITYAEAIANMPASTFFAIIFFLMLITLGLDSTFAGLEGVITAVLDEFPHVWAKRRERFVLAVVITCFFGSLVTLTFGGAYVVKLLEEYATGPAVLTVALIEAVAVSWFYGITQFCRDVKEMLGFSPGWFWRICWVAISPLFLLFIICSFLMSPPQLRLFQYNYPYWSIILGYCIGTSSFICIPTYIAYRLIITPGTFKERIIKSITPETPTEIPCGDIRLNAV

[4] = biological target: T1, Prostaglandin D2 receptor 2; experiment: Displacement of [3H]PGD2 from CRTH2 expressed in CHO cells after 1 hr by beta counting analysis; type: cell-based
[5] = biological target: T1, Prostaglandin D2 receptor 2; experiment: Displacement of [3H]PGD2 from human CRTH2 expressed in K562 cells after 60 mins by scintillation counting; type: cell-based
[6] = biological target: T1, Prostaglandin D2 receptor 2; experiment: Displacement of [3H]PGD2 from human CRTH2 expressed in K562 cells after 60 mins by scintillation counting in presence of 4% human serum albumin; type: cell-based
[7] = biological target: T1, Prostaglandin D2 receptor 2; experiment: Antagonistic activity at CRTH2 in human eosinophils assessed as inhibition of PGD2-induced calcium mobilization after 60 mins by Fluo-3 based fluorescence assay; type: functional
[8] = biological target: T1, Prostaglandin D2 receptor 2; experiment: Displacement of [3H]PGD2 from human CRTH2 expressed in HEK293 cells after 90 mins by TopCount analysis; type: cell-based
[9] = biological target: Aldo-keto reductase family 1 member B1 (Rattus norvegicus, UniProt P07943); experiment: Inhibition of rat aldose reductase
[10] = Oral bioavailability in rat; type: ADME, organism-based; details: in vivo
[11] = in vivo; details: rat

Work on C[C@H]1C[C@@H](N(C(=O)CCC(=O)O)c2ccccc2)c2ccccc2N1C(=O)c1ccccc1 yielded a pIC50 [1] of 9.11.

In the case of Cc1c(Sc2ccc(Cl)cc2)c2c(Cl)nccc2n1CC(=O)O, the pKi [2] was 7.24.

Compound Cc1c(CC(=O)O)c2cc(F)ccc2n1S(=O)(=O)c1ccc(S(C)(=O)=O)cc1 has a pIC50 [1] of 6.97.

In the case of Cc1ccc2c(c1)c(-c1ccnc3c(C)cccc13)c(C)n2CC(=O)O, the pIC50 [3] was 5.70.

With Cc1c(Sc2ccc(Cl)cc2)c2cc(Cl)ncc2n1CC(=O)O the pKi [2] was 6.97.

Cc1c(Sc2ccc(Cl)cc2)c2ncccc2n1CC(=O)O gave a pKi [3] of 6.84 and a pKi [4] of 6.84.

CCc1nc2c(F)ccc(OCC(=O)O)c2c(OC(F)F)c1Cc1ccc(-n2cccn2)cc1 showed a pKi [5] of 8.27.

For O=C(Nc1cccc(-c2ccc(Cl)cc2)n1)c1ccc(Oc2cc3c(cc2Cl)[C@H](C(=O)O)CCO3)cc1, the pIC50 [6] was 7.66.

Compound Cc1cc(CC(=O)O)c2c(C)c(Cc3ccccc3)c(=O)oc2c1 has a pKi [5] of 7.49.

Compound CCc1c(CC(=O)O)c(C2CC2)nn1Cc1ccc(NC(=O)c2ccc(C(F)(F)F)cc2)cc1 has a pKi [2] of 9.30.

O=C(O)Cc1ccc(Oc2ccc(NC(=O)c3ccc(Cl)c(Cl)c3)cc2)c(CNS(=O)(=O)c2ccc(F)cc2)c1 showed a pKi [2] of over 6.00.

CCN(Cc1cc(C(F)(F)F)ccc1-c1cc(CC(=O)O)ccc1OC)C(=O)C1CC1 gave a pIC50 [1] of 8.19 and a pKi [2] of 7.87.

For Cc1c(Cc2ccc(S(C)(=O)=O)cc2)c2cc(F)ccc2n1CC(=O)O, the pIC50 [1] was 8.10.

Cc1c(Cc2nc3ccccc3s2)c2cc(F)ccc2n1CC(=O)O showed a pIC50 [1] of 6.46.

Compound Cc1c(CC(=O)O)c2cc(F)ccc2n1Cc1ccc2ccccc2c1 has a pKi [7] of 8.05.

In the case of Cc1c(Cc2ccc3ccccc3c2)c2cc(F)ccc2n1CC(=O)O, the pKi [7] was 7.82 and the pIC50 [1] was 6.09.

For Cc1c(CC(=O)O)c2cc(F)ccc2n1Cc1nc2ccccc2s1, the pKi [7] was 7.36 and the pIC50 [1] was 5.62.

Compound O=C(O)Cn1c2c(c3cc(F)ccc31)C[C@H](NC(=O)CC(c1ccccc1)c1ccccc1)CC2 has a pIC50 [8] of 8.70.

Compound CN(C(=O)C1(C)CCc2c(c3ccccc3n2CC(=O)O)C1)c1cccc(Cl)c1 (stereo unspecified) has a pIC50 [8] of 9.00.

For Cc1c(Cc2ccc3ccccc3n2)c2cc(F)ccc2n1CC(=O)O [TIMAPIPRANT], the pIC50 [9] was 6.26, the bioavailability [10] was 100% and the half-life [11] was 3.5 h.
